The values below come from ChEMBL document CHEMBL4706637, “Design, synthesis and biological evaluation of thioether-containing lenalidomide and pomalidomide derivatives with anti-multiple myeloma activity” (Eur J Med Chem, 2021).

For series [1], the target named is Zinc finger protein Aiolos (Homo sapiens) (UniProt Q9UKT9). The experiment in a line: Induction of IKZF3 degradation in human MM1.S cells assessed as reduction in IKZF3 level incubated for 12 hrs by immunoblot analysis. It is filed as cell-based. Particulars: dose 0.02-2 µM. On the technique in general: In western blotting, separated proteins are transferred to a membrane and probed.
Zinc finger protein Aiolos (Homo sapiens), sequence (Q9UKT9 whole entry): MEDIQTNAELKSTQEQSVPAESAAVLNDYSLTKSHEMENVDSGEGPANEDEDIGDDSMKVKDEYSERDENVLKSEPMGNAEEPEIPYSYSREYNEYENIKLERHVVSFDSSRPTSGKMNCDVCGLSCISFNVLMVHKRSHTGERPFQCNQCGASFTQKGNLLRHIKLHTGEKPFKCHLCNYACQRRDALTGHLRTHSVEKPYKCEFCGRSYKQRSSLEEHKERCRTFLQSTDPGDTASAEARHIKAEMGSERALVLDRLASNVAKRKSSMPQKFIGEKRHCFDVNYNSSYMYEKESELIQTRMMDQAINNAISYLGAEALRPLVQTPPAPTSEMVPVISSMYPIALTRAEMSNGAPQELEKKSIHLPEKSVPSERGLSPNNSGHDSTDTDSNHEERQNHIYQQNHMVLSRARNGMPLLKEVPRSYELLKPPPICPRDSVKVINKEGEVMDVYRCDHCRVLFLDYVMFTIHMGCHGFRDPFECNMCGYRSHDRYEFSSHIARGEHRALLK

The target in series [2] is DNA-binding protein Ikaros (Homo sapiens) (UniProt Q13422). The experiment in a line: Induction of IKZF1 degradation in human MM1.S cells assessed as reduction in IKZF1 level incubated for 12 hrs by immunoblot analysis. The class given is cell-based. Particulars: dose 0.02-2 µM.
DNA-binding protein Ikaros (Homo sapiens), sequence (Q13422 whole entry): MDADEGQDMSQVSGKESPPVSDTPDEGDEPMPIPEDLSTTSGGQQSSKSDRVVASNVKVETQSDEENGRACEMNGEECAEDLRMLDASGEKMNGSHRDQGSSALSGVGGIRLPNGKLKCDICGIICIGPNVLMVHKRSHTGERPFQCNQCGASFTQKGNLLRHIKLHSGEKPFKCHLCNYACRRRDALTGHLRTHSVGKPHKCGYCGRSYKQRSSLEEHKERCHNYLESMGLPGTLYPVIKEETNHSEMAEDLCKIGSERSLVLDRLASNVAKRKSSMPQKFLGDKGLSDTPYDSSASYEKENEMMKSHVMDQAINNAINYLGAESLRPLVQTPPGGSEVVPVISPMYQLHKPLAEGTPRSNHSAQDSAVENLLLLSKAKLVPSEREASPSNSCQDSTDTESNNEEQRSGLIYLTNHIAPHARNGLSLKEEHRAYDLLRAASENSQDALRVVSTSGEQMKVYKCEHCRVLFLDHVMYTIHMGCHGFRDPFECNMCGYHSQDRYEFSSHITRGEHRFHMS
For series [3] the target is unchanged. The experiment in a line: Induction of IKZF1 degradation in human MM1.S cells assessed as reduction in IKZF1 level at 0.02 to 2 uM incubated for 12 hrs by immunoblot analysis. The class given is cell-based. Particulars: dose 0.02-2 µM.
The target in series [4] is Zinc finger protein Aiolos (Homo sapiens) (UniProt Q9UKT9). The experiment in a line: Induction of IKZF3 degradation in human MM1.S cells assessed as reduction in IKZF3 level at 0.02 to 2 uM incubated for 12 hrs by immunoblot analysis. Particulars: dose 0.02-2 µM. The class given is cell-based.
The nature of series [5]: Intrinsic clearance in human. The class given is ADME.
Series [6] is described as follows: Half-life in human liver microsomes. The class given is ADME, Microsome. In general terms: Liver microsomes are vesicles of endoplasmic reticulum, rich in cytochrome P450 enzymes.
In series [7] the test system is MM1.S. The experiment in a line: Antitumor activity against human MM1.S cells xenografted in CB17-SCID mouse assessed as reduction in tumor weight at 60 mg/kg, po qd for 14 days and measured after 14 days. The class given is functional. Particulars: 336 h, time 14 day. On the technique in general: Xenograft models place foreign cells or tissue in a host animal.
Series [8] is described as follows: Hepatic intrinsic clearance in human. The class given is ADME.
Series [9] can be described thus: Metabolic stability in human liver microsomes assessed as parent compound remaining. It is filed as ADME, Microsome.
Series [10] concerns MM1.S. The experiment in a line: Antiproliferative activity against human MM1.S cells assessed as reduction in cell growth measured after 7 days culturing by CellTiter 96 Aqueous non-radioactive cell proliferation assay. Particulars: 168 h. It is filed as functional, cell-based.
A short description of series [11]: Intrinsic clearance in human liver microsomes measured per gm of protein. It is filed as ADME, Microsome.

Active and inactive are the calls of the source. No cut-off for these calls is given here.

As usually defined, the half-life is how long it takes for the measured level to halve. Low values mean rapid decline, high ones slow decline. In general, inhibition in vivo refers to the change of the read-out against control, counted positive when it falls. In general, IC50 refers to the concentration needed to halve the response being measured.

Consider `COc1ccccc1Sc1cccc2c1CN(C1CCC(=O)NC1=O)C2=O` (stereo unspecified), for which the Activity entry in series [1] and in series [2] was “Dose-dependent effect” in each case.
Turning to `O=C1CCC(N2Cc3c(Sc4ccc(F)cc4)cccc3C2=O)C(=O)N1` (stereo unspecified), the result in series [3] and in [4] was Active.
`Nc1cccc2c1CN(C1CCC(=O)NC1=O)C2=O` (stereo unspecified) [LENALIDOMIDE] had a CL in [5] of 138.7 mL/min. In addition, in series [6], the half-life is 19.3 h. Moreover, the inhibition in vivo at 60 mg/kg/day in series [7] was 62.6%. In addition, the CLH stood at 127 mL/min in series [8] and 1.8 mL/min/g in series [11]. Moreover, the Stabilty in series [9] is given as 91.5%. The IC50 in series [10] came to 81 nM.
